{
  "source": "patent US20100120887A1",
  "about": "“SUSTAINED RELEASE FORMULATION OF MELATONIN” (THE TRUSTEES OF COLUMBIA UNIVERSITY IN THE CITY OF NEW YORK, priority 2007, published 2010)",
  "assay": "Initial clinical evaluation, open clinical treatment of circadian sleep disorders and depression (case reports)",
  "assay_type": "in vivo, human",
  "description": "The present invention describes tablet formulation, in vitro and in vivo pharmacokinetics in a healthy, middle-aged subject group, and a range of potential uses. In the past three years, the present invention has been used in open clinical treatment of a variety of cases comprising circadian sleep disorders and depression. The strategy for treatment concentrates on serious cases, from which application to less severe cases—far more common population-wide—can be inferred. For example, in Delayed Sleep Phase Disorder (DSPD), the patient cannot fall asleep before wee hours of the night or early morning because of misalignment of the internal circadian timing system with external day and night. […] Melatonin is the chronobiotic par exemplar. Milder circadian misalignment is highly prevalent in the population, often starting in adolescence. A typical example is the worker who must maintain a 9-5 schedule but cannot fall asleep before 1 AM (“early insomnia”), leaving six hours for sleep availability, leading to daytime fatigue, disorientation, lapses of alertness, and weekend oversleeping that can trigger depressed mood. Such people comprise a primary market for the present invention, with the prospect of reduced reliance on sleeping pills.\nThus far, an ensemble of chronotherapeutic interventions has been used in clinical trials. […]",
  "data": [
    {"smiles": "COc1ccc2[nH]cc(CCNC(C)=O)c2c1", "note": "[melatonin, N-acetyl-5-methoxytryptamine]", "values": [
      {"measurement": "sleep onset and depressive symptoms under treatment", "setting": "Case 2: seasonal depression, sleep not before 1 AM, melatonin at 6:30 PM plus light therapy 45 minutes", "result": "go to sleep at 11:30 PM with remission of depressive symptoms"},
      {"measurement": "sleep onset under treatment", "setting": "Case 3: history of seasonal depression, melatonin around 9 PM plus intermittent light therapy", "result": "able to sleep at midnight without effort"}
    ]}
  ]
}
